Measurements from ChEMBL document CHEMBL4373717, “Coumarin-containing hybrids and their anticancer activities” (Eur J Med Chem, 2019).
In brackets after ≈: the same amount, converted by molar mass.

Assays:
A549 [1] = experiment: Potency index, ratio of cisplatin IC50 to compound IC50 for antiproliferative activity against human A549 cells; assay type: functional
K562 [2] = experiment: Potency index, ratio of cisplatin IC50 to compound IC50 for antiproliferative activity against human K562 cells; assay type: functional
K562 [3] = experiment: Antiproliferative activity against human K562 cells after 48 hrs by MTT assay; assay type: functional, cell-based; details: K562, 48 h
MCF7 [4] = experiment: Antiproliferative activity against human MCF7 cells after 48 hrs by MTT assay; assay type: functional, cell-based; details: MCF7, 48 h
A549 [5] = experiment: Antiproliferative activity against human A549 cells after 48 hrs by MTT assay; assay type: functional, cell-based; details: A549, 48 h
MCF7 [6] = experiment: Potency index, ratio of cisplatin IC50 to compound IC50 for antiproliferative activity against human MCF7 cells; assay type: functional
A549 [7] = experiment: Growth inhibition of human A549 cells; assay type: functional
NCI-H460 = experiment: Growth inhibition of human H460 cells; assay type: functional
NCI-H1650 = experiment: Growth inhibition of human NCI-H1650 cells; assay type: functional
MDA-MB-231 [8] = experiment: Cytotoxicity against human MDA-MB-231 cells assessed as reduction in cell viability after 24 hrs by MTT assay; assay type: functional, cell-based; details: Homo sapiens, MDA-MB-231, 24 h
A549 [9] = experiment: Cytotoxicity against human A549 cells assessed as reduction in cell viability after 24 hrs by MTT assay; assay type: functional, cell-based; details: A549, 24 h
L02 = experiment: Cytotoxicity against human L02 cells assessed as reduction in cell viability after 24 hrs by MTT assay; assay type: cell-based; details: L02, 24 h
HEK-293T = experiment: Cytotoxicity against HEK293T cells assessed as reduction in cell viability after 24 hrs by MTT assay; assay type: cell-based; details: Homo sapiens
HeLa [10] = experiment: Cytotoxicity against human HeLa cells assessed as reduction in cell viability after 24 hrs by MTT assay; assay type: functional, cell-based
MCF7 [11] = experiment: Cytotoxicity against human MCF7 cells assessed as reduction in cell viability after 24 hrs by MTT assay; assay type: functional, cell-based; details: MCF7, 24 h
HCT-116 = experiment: Anticancer activity against human HCT116 cells; assay type: functional, cell-based
[12] = Cytotoxicity against BHK cells assessed as reduction in cell viability by MTT assay; details: Cricetinae
MCF7 [13] = experiment: Cytotoxicity against human MCF7 cells assessed as reduction in cell viability by MTT assay; assay type: functional, cell-based; details: Homo sapiens, MCF7
SNB-75 = experiment: Anticancer activity against human SNB75 cells; assay type: functional
OVCAR-4 = experiment: Anticancer activity against human OVCAR4 cells; assay type: functional
PANC-1 = experiment: Cytotoxicity against human PANC1 cells assessed as reduction in cell viability by MTT assay; assay type: functional, cell-based
A549 [14] = experiment: Cytotoxicity against human A549 cells assessed as reduction in cell viability by MTT assay; assay type: functional, cell-based
HepG2 = experiment: Cytotoxicity against human HepG2 cells assessed as reduction in cell viability by MTT assay; assay type: functional, cell-based; details: Homo sapiens, HepG2
A549 [15] = experiment: Anticancer activity against human A549 cells by MTT assay; assay type: functional, cell-based
MDA-MB-231 [16] = experiment: Anticancer activity against human MDA-MB-231 cells by MTT assay; assay type: functional, cell-based
HeLa [17] = experiment: Anticancer activity against human HeLa cells by MTT assay; assay type: functional, cell-based
K562 [18] = experiment: Anticancer activity against human K562 cells by MTT assay; assay type: functional, cell-based
A549 [19] = experiment: Potency index, ratio of doxorubicin IC50 to compound IC50 for anticancer activity against human A549 cells; assay type: functional
MDA-MB-231 [20] = experiment: Potency index, ratio of doxorubicin IC50 to compound IC50 for anticancer activity against human MDA-MB-231 cells; assay type: functional
HeLa [21] = experiment: Potency index, ratio of doxorubicin IC50 to compound IC50 for anticancer activity against human HeLa cells; assay type: functional
K562 [22] = experiment: Potency index, ratio of doxorubicin IC50 to compound IC50 for anticancer activity against human K562 cells; assay type: functional
[23] = Toxicity in mouse assessed as mouse survival (reference value: 14.5 days); details: in vivo, 348 h
COS-7 = experiment: Cytotoxicity against African green monkey COS7 cells assessed as reduction in cell viability by MTT assay; assay type: functional, cell-based; details: Chlorocebus aethiops
HeLa [24] = experiment: Cytotoxicity against human HeLa cells assessed as reduction in cell viability by MTT assay; assay type: functional, cell-based
MCF7 [25] = experiment: Cytotoxicity against human MCF7 cells assessed as reduction in cell viability; assay type: functional, cell-based
PC-3 = experiment: Cytotoxicity against human PC3 cells assessed as reduction in cell viability by MTT assay; assay type: functional, cell-based
HT-29 = experiment: Cytotoxicity against human HT-29 cells assessed as reduction in cell viability by MTT assay; assay type: functional, cell-based

**Q.** What does the source list for `CCN(CC)CCOc1ccc(-c2c(-c3ccc(NC(=O)CCCCCCCCC(=O)Nc4ccc(-c5c(-c6ccc(OCCN(CC)CC)cc6)c6ccc(OCCN(CC)CC)cc6oc5=O)cc4)cc3)c(=O)oc3cc(OCCN(CC)CC)ccc23)cc1`?
**A.** Ratio IC50 (A549 [1]): 2.4 - 8.3; Ratio IC50 (K562 [2]): 2.4 - 8.3; IC50 (K562 [3]): 1 to 3.72 µM; IC50 (MCF7 [4]): 1 to 3.72 µM; IC50 (A549 [5]): 1 to 3.72 µM; Ratio IC50 (MCF7 [6]): 2.4 - 8.3

**Q.** With `COc1ccc(C(=O)CC(c2c(O)c3ccccc3oc2=O)c2c(O)c3ccccc3oc2=O)c(O)c1` as the molecule, how does the GI50 (A549 [7]) read?
**A.** 33.3 µM

**Q.** And the GI50 (NCI-H460)?
**A.** 35.7 µM

**Q.** And the GI50 (NCI-H1650)?
**A.** 50.1 µM

**Q.** With `CC(C)=CC[C@@H](OCc1ccc(C(=O)/N=C/c2c(Cl)c3ccccc3oc2=O)cc1)C1=CC(=O)c2c(O)ccc(O)c2C1=O` as the molecule, how does the IC50 (MDA-MB-231 [8]) read?
**A.** 3.25 to 10.6 µM

**Q.** What about the IC50 (A549 [9]) of the same molecule?
**A.** 3.25 to 10.6 µM

**Q.** And the IC50 (L02)?
**A.** 3.25 to 10.6 µM

**Q.** And the IC50 (HEK-293T)?
**A.** 3.25 to 10.6 µM

**Q.** And the IC50 (HeLa [10])?
**A.** 3.25 to 10.6 µM

**Q.** What about the IC50 (MCF7 [11]) of the same molecule?
**A.** 3.25 to 10.6 µM

**Q.** Which IC50 (HCT-116) does the source give for `NS(=O)(=O)c1ccc(Nc2nn3c(Cc4cc(=O)oc5ccccc45)nnc3s2)cc1` here?
**A.** 2.66 µM

**Q.** Which IC50 [12] does the source give for `CN(Cc1cnc2nc(N)nc(N)c2n1)c1ccc(C(=O)N[C@@H](CCC(=O)O)C(=O)O)cc1` [METHOTREXATE] here?
**A.** 150 µM

**Q.** What about the IC50 (MCF7 [13]) of the same molecule?
**A.** 27.1 µM

**Q.** With `CC(C)=CC[C@@H](O)C1=CC(=O)c2c(O)ccc(O)c2C1=O` [SHIKONIN] as the molecule, how does the IC50 (MDA-MB-231 [8]) read?
**A.** 6.5 to 10.4 µM

**Q.** What about the IC50 (A549 [9]) of the same molecule?
**A.** 6.5 to 10.4 µM

**Q.** And the IC50 (L02)?
**A.** 6.22 µM

**Q.** What about the IC50 (HEK-293T) of the same molecule?
**A.** 1.52 µM

**Q.** What about the IC50 (HeLa [10]) of the same molecule?
**A.** 6.5 to 10.4 µM

**Q.** And the IC50 (MCF7 [11])?
**A.** 6.5 to 10.4 µM

**Q.** For `Nc1ccc2c(-c3nc4ccc(Br)c(O)c4s3)cc(=O)oc2c1`, which GI50 (SNB-75) is on record?
**A.** 0.24 µM

**Q.** And the GI50 (OVCAR-4)?
**A.** 0.33 µM

**Q.** For `COc1cc(Cl)ccc1NS(=O)(=O)c1ccc2oc(=O)ccc2c1`, which IC50 (PANC-1) is on record?
**A.** 4.63 to 7.02 µM

**Q.** And the IC50 (A549 [14])?
**A.** 4.63 to 7.02 µM

**Q.** And the IC50 (HepG2)?
**A.** 4.63 to 7.02 µM

**Q.** For `COc1ccc(-n2nc(C)n(-n3c(-c4cc5ccccc5oc4=O)cs/c3=N\c3ccc(Cl)cc3)c2=O)cc1`, which IC50 (A549 [15]) is on record?
**A.** 0.16 to 0.31 µg/mL (≈ 0.287 to 0.556 µM)

**Q.** And the IC50 (MDA-MB-231 [16])?
**A.** 0.16 to 0.31 µg/mL (≈ 0.287 to 0.556 µM)

**Q.** And the IC50 (HeLa [17])?
**A.** 0.16 to 0.31 µg/mL (≈ 0.287 to 0.556 µM)

**Q.** What about the IC50 (K562 [18]) of the same molecule?
**A.** 0.16 to 0.31 µg/mL (≈ 0.287 to 0.556 µM)

**Q.** And the “Ratio IC50” value (A549 [19])?
**A.** 1.9 - 3.3

**Q.** And the “Ratio IC50” value (MDA-MB-231 [20])?
**A.** 1.9 - 3.3

**Q.** What about the “Ratio IC50” value (HeLa [21]) of the same molecule?
**A.** 1.9 - 3.3

**Q.** And the “Ratio IC50” value (K562 [22])?
**A.** 1.9 - 3.3

**Q.** Which results are given for `O=c1oc2ccccc2cc1-c1csc(N/N=C/c2cc([N+](=O)[O-])ccc2Cl)n1`?
**A.** Survival [23]: 39.3 days; IC50 (COS-7): 1.29 to 1.96 µM; IC50 (HeLa [24]): 1.29 to 1.96 µM; IC50 (MCF7 [25]): 1.29 to 1.96 µM

**Q.** With `COc1ccc2oc(=O)c(/C=C3\SC(=O)N(C(=O)c4ccc(Cl)cc4)C3=O)cc2c1` as the molecule, how does the IC50 (PC-3) read?
**A.** 0.95 to 3.2 µM

**Q.** What about the IC50 (HT-29) of the same molecule?
**A.** 0.95 to 3.2 µM

**Q.** And the IC50 (A549 [14])?
**A.** 0.95 to 3.2 µM

**Q.** And the IC50 (HeLa [24])?
**A.** 0.95 to 3.2 µM

**Q.** What about the IC50 (MCF7 [13]) of the same molecule?
**A.** 0.95 to 3.2 µM
